Laboratory results from patent US12297222B2, “CD206 targeted drug delivery vehicles carrying novel bisphosphonate drug payloads via a degradable linker” (Navidea Biopharmaceuticals, Inc., priority 2022, dated 2025).

Columns and labels:
human macrophages [1] = experiment: Human macrophage cell culture assay: viability (DAPI-) by flow cytometry; assay type: cell-based; conditions: 24 hours treatment, then three days in fresh medium; any tested concentration
Method: GM-CSF induces the macrophages to adopt an activated phenotype that is intermediate between the extremes of M1 or M2. […] The macrophage cell cultures were incubated with the supplemented complete medium for 24 hours after which it was removed and replaced with fresh complete medium. The macrophage cultures were then incubated for an additional three days. The three-day post treatment incubation was performed to permit assessment of durable changes in macrophage phenotypes. […] For each donor's macrophages, all experiments were run in triplicate.

human macrophages [2] = experiment: Human macrophage cell culture assay: surface marker expression (MFI) by flow cytometry; assay type: cell-based
Method: GM-CSF induces the macrophages to adopt an activated phenotype that is intermediate between the extremes of M1 or M2. […] The macrophage cell cultures were incubated with the supplemented complete medium for 24 hours after which it was removed and replaced with fresh complete medium. The macrophage cultures were then incubated for an additional three days. The three-day post treatment incubation was performed to permit assessment of durable changes in macrophage phenotypes.
For each donor's macrophages, all experiments were run in triplicate.

Row | Structure (SMILES) | cell viability (human macrophages [1]) | expression levels of the evaluated surface markers (overall) (human macrophages [2]; FIG. 5, 80 μg of MAD-BIS-1 or equal molar free BIS-1, fold change in MFI vs saline) | changes in macrophage phenotype observed with MAD-BIS-1 (human macrophages [2]; free BIS-1 at any dose) | expression level of the evaluated surface markers (overall) (human macrophages [2]; FIG. 8, free BIS-2)
1 | CC(=O)c1sc(NCC(P(=O)(O)O)P(=O)(O)O)nc1C [BIS-1, 2-(4-methyl-5-acetylthiazole-2-yl-amino)ethylidene 1,1-bisphosphonic acid] | neither MAD-BIS-1 nor free BIS-1 decreased cell viability | very little effect | could not be replicated | –
2 | CC(=O)c1cn(CC(C)(P(=O)(O)O)P(=O)(O)O)cn1 [BIS-2, 2-(4-acetylimidazole)ethylidene-1-methyl-1,1-bisphosphonic acid] | – | – | – | did not alter
